System: MPG/CN neurons
Experiment: MPG/CN organ culture with Affi-Gel beads, quantification of neurites
Format: cell-based, Sprague Dawley rats
Conditions: uninjured MPG/CN, three days, SHH inhibitors on Affi-Gel beads, vs DMSO or PBS

With `CC1=C2C[C@H]3[C@@H](CC=C4C[C@@H](O)CC[C@@]43C)[C@@H]2CC[C@]12O[C@@H]1C[C@H](C)CN[C@H]1[C@H]2C` [cyclopamine] the neurite formation reduced was 5.6 fold and the “neurite formation reduced / inhibited” value was 82%.

From US11426448B2, “Methods for treatment of erectile dysfunction with sonic hedgehog compounds” (NORTHWESTERN UNIVERSITY, priority 2018, dated 2022)
